The results in this text go back to ChEMBL document CHEMBL1201862, “PubChem BioAssay data set” (2004).

Each structure is given as a SMILES string.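 Cells were grown in 96-well plates and exposed to each compound for 48 hours at five concentrations; endpoints were interpolated linearly between bracketing concentrations, or set to the highest concentration if not reached. GI50 is the concentration that inhibits growth by half.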 Activity calls are given as the source filed them. Rule as the data show it: active = GI50 up to about 1.1 µM and inactive = higher.

Some test systems named below: MDA-N; SF-539; OVCAR-8; MCF7; HOP-92; NCI-H522; SN12C; K562; SK-MEL-5; HCT-116; HCT-15; COLO 205; PC-3; Hs-578T; MDA-MB-231; HCC 2998; U-251; 786-0; NCI-H23; UO-31.
Common to all, as to experiment: inhibition of tumour cell growth, NCI panel, 48 h

As for `Cc1ccc(-c2c(C#N)c(-c3ccc(N(C)C)cc3)c(C#N)c(=O)n2NS(=O)(=O)c2ccccc2)cc1`, the GI50 in the assay with MDA-N is 45.9 µM (inactive); in the assay with SF-539, 21.9 µM (inactive); in the assay on OVCAR-8 it was 44.5 µM (inactive); in the assay with MCF7, 26.1 µM (inactive); in the assay on HOP-92, > 100 µM (inactive); with NCI-H522, 42.3 µM (inactive). Moreover, the GI50 is 55.7 µM (inactive) in the assay with SN12C; 44.9 µM (inactive) in the assay with K562; 17.3 µM (inactive) in the assay with SK-MEL-5; 30.7 µM (inactive) in the assay on HCT-116; 27.7 µM in the assay with HCT-15; 40.8 µM (inactive) in the assay on COLO 205. Also, the GI50 was 33.4 µM (inactive) with PC-3; 33.7 µM (inactive) with Hs-578T; > 100 µM (inactive) in the assay with MDA-MB-231; 18.3 µM (inactive) in the assay on HCC 2998; 47.9 µM (inactive) in the assay on U-251; 22.9 µM (inactive) in the assay with 786-0.

As to `C=CCC1(O)C(=O)OC2C(O)COC21O` (centres undefined), the GI50 in the assay with MDA-N, in the assay on SF-539, in the assay on NCI-H23, in the assay on OVCAR-8, in the assay with MCF7 and in the assay on HOP-92 was > 100 µM (inactive) each time. For the same compound, the GI50 in the assay with NCI-H522 is > 100 µM (inactive); in the assay on SN12C it was > 100 µM (inactive); in the assay on K562 it was > 100 µM (inactive); with SK-MEL-5, > 100 µM (inactive); in the assay on HCT-116, > 100 µM (inactive); in the assay with HCT-15 it was > 100 µM. In addition, the GI50 with UO-31, with COLO 205, with PC-3, with Hs-578T, in the assay with MDA-MB-231 and in the assay with HCC 2998 was > 100 µM (inactive) throughout. In addition, the GI50 in the assay on U-251 and in the assay with 786-0 was > 100 µM (inactive) each time.

For the compound `C[N+]12CCCCC1C(CN1C(=O)Cc3c4ccccc4c(c4ccccc34)CC1=O)CCC2` (centres undefined), the GI50 with MDA-N, in the assay with SF-539, in the assay with NCI-H23, in the assay on OVCAR-8, in the assay on MCF7 and in the assay on HOP-92 was > 100 µM (inactive) each time. Further, the GI50 in the assay with NCI-H522 is > 100 µM (inactive); in the assay with SN12C, > 100 µM (inactive); in the assay on K562 it was > 100 µM (inactive); in the assay with SK-MEL-5, > 100 µM (inactive); in the assay on HCT-116, > 100 µM (inactive); in the assay with HCT-15, > 100 µM. Also, the GI50 with UO-31, in the assay on COLO 205, with PC-3, in the assay on Hs-578T, with MDA-MB-231 and in the assay on HCC 2998 was > 100 µM (inactive) in each case. Besides, the GI50 in the assay on U-251 and with 786-0 was > 100 µM (inactive) throughout.

With `CCCCCCCCCCCCCCC[C@@H](O)C[N+](C)(C)CCO`, the GI50 with MDA-N is 5.98 µM (inactive); in the assay with SF-539, 2.39 µM (inactive); in the assay on NCI-H23, 2.06 µM (inactive); with OVCAR-8, 5.13 µM (inactive); in the assay on MCF7 it was 5.85 µM (inactive); with HOP-92 it was 1.27 µM (inactive). Moreover, the GI50 is 1.42 µM (inactive) with NCI-H522; 5.61 µM (inactive) with SN12C; 2.41 µM (inactive) in the assay on K562; 2.72 µM (inactive) in the assay on SK-MEL-5; 3.99 µM (inactive) in the assay on HCT-116; 2.6 µM in the assay with HCT-15. For the same compound, the GI50 was 7.01 µM (inactive) in the assay on UO-31; 2.57 µM (inactive) in the assay on COLO 205; 1.06 µM (active) with PC-3; 1.38 µM (inactive) in the assay on Hs-578T; 1.8 µM (inactive) with MDA-MB-231; 1.8 µM (inactive) in the assay on HCC 2998. For the same compound, the GI50 with U-251 is 1.73 µM (inactive); with 786-0 it was 0.927 µM (active).

`NCc1ccc(O)c(O)c1O`: the GI50 in the assay on MDA-N is > 10 µM (inactive); in the assay on SF-539, 27.1 µM (inactive); with NCI-H23 it was 28.1 µM (inactive); in the assay with OVCAR-8, 23.9 µM (inactive); in the assay on MCF7, 16.8 µM (inactive); in the assay with HOP-92, > 58.6 µM (inactive). Also, the GI50 with NCI-H522 is > 59 µM (inactive); in the assay with SN12C, 20 µM (inactive); in the assay on K562 it was 23.6 µM (inactive); with SK-MEL-5, 21.7 µM (inactive); in the assay on HCT-116, 16.7 µM (inactive); with HCT-15 it was 24.7 µM. Besides, the GI50 in the assay with UO-31 is 59.7 µM (inactive); in the assay with COLO 205, 19.2 µM (inactive); with PC-3, 33 µM (inactive); in the assay with Hs-578T, 10.7 µM (inactive); in the assay with MDA-MB-231, 19.7 µM (inactive); in the assay on HCC 2998, > 66.4 µM (inactive). Moreover, the results for the GI50 with U-251 and with 786-0 were 24.9 µM (inactive) and 15.9 µM (inactive), respectively.

For the compound `C(=N\N=C1NCCN1)/c1ccc2ccccc2c1`, the GI50 in the assay on MDA-N is 14.1 µM (inactive); with SF-539, 19 µM (inactive); in the assay on NCI-H23 it was 19.6 µM (inactive); in the assay with OVCAR-8 it was 16.4 µM (inactive); with MCF7, 15.3 µM (inactive); with HOP-92, 0.174 µM (active). Besides, the GI50 in the assay with NCI-H522 was 13.1 µM (inactive); in the assay with SN12C, 16.9 µM (inactive); with K562, 11.6 µM (inactive); in the assay with SK-MEL-5 it was 13.2 µM (inactive); with HCT-116 it was 15.4 µM (inactive); in the assay on HCT-15, 18.2 µM. The GI50 with UO-31 was 3.67 µM (inactive); with COLO 205, 6.84 µM (inactive); with PC-3, 14.3 µM (inactive); in the assay with Hs-578T, 19.5 µM (inactive); in the assay with MDA-MB-231, 16.4 µM (inactive); with HCC 2998 it was 12.7 µM (inactive). Also, the figures for the GI50 in the assay with U-251 and in the assay on 786-0 were 13.9 µM (inactive) and 12.8 µM (inactive), respectively.

For `CC(=O)OCC12C(OC(C)=O)C(=O)C3C(OC(C)=O)C14OC3(C)COC(=O)c1cccnc1C(C)C(C)C(=O)OC(C(OC(C)=O)C2OC(C)=O)C4(C)O` (centres undefined), the GI50 in the assay on MDA-N, in the assay on SF-539, in the assay with NCI-H23, with OVCAR-8, in the assay on MCF7 and with HOP-92 was > 100 µM (inactive) each time. The GI50 in the assay with NCI-H522 was > 100 µM (inactive); with SN12C, > 100 µM (inactive); in the assay on K562 it was > 100 µM (inactive); with SK-MEL-5, > 100 µM (inactive); with HCT-116, > 100 µM (inactive); in the assay with HCT-15, > 100 µM. For the same compound, the GI50 in the assay with UO-31, in the assay with COLO 205, with PC-3, in the assay with Hs-578T, in the assay on MDA-MB-231 and with HCC 2998 was > 100 µM (inactive) in each case. Moreover, the GI50 in the assay on U-251 and with 786-0 was > 100 µM (inactive) each time.

In the case of `Cc1ccc(/N=C2\C(=N/c3ccc(C)cc3)N(c3ccc(C)cc3)C(=S)N2C(=O)c2ccccc2)cc1`, the GI50 was > 100 µM (inactive) with MDA-N; > 100 µM (inactive) in the assay with SF-539; > 100 µM (inactive) in the assay on NCI-H23; > 10 µM (inactive) with OVCAR-8; > 100 µM (inactive) with MCF7; > 100 µM (inactive) in the assay with HOP-92. Besides, the GI50 in the assay on NCI-H522 is 43.8 µM (inactive); with SN12C, > 100 µM (inactive); with K562, > 100 µM (inactive); in the assay on SK-MEL-5, > 100 µM (inactive); in the assay with HCT-15, > 100 µM; in the assay on UO-31 it was > 100 µM (inactive). Further, the GI50 with COLO 205, in the assay with PC-3, in the assay on Hs-578T, in the assay with MDA-MB-231, in the assay on HCC 2998 and in the assay on U-251 was > 100 µM (inactive) throughout. Moreover, the GI50 with 786-0 was > 100 µM (inactive).

Consider `OCC1OC(n2cnc3c2N=CNC[C@H]3O)C(Cl)C1O` (some centres undefined), for which the GI50 in the assay with MDA-N, in the assay with SF-539, with NCI-H23, with OVCAR-8, in the assay on MCF7 and with HOP-92 was > 100 µM (inactive) each time. Moreover, the GI50 was > 100 µM (inactive) with NCI-H522; > 100 µM (inactive) in the assay with SN12C; > 100 µM (inactive) in the assay with SK-MEL-5; > 100 µM (inactive) in the assay on HCT-116; > 100 µM with HCT-15; > 100 µM (inactive) in the assay with UO-31. In addition, the GI50 with COLO 205, with PC-3, with Hs-578T, with MDA-MB-231, in the assay with HCC 2998 and in the assay on U-251 was > 100 µM (inactive) in each case. In addition, the GI50 in the assay with 786-0 was > 100 µM (inactive).

As to `COc1ccc2c(=O)c3cc([N+](=O)[O-])ccc3n(C)c2c1`, the GI50 with MDA-N, in the assay on SF-539, with OVCAR-8, in the assay on MCF7, with HOP-92 and in the assay with NCI-H522 was > 100 µM (inactive) each time. The GI50 is > 100 µM (inactive) in the assay with SN12C; > 100 µM (inactive) in the assay on K562; > 100 µM (inactive) with SK-MEL-5; > 100 µM with HCT-15; > 100 µM (inactive) with UO-31; > 100 µM (inactive) with COLO 205. The GI50 in the assay on PC-3, in the assay with Hs-578T, with MDA-MB-231, in the assay with HCC 2998, in the assay on U-251 and in the assay with 786-0 was > 100 µM (inactive) each time.
